Laboratory results taken from patent US7265129B2, “Anti-infective biaryl compounds” (priority 2002, dated 2007).

Key:
[1] = tested on: S. epidermidis ATCC 12228; experiment: MIC, S. epidermidis; assay type: cell-based, Staphylococcus epidermidis; conditions: Table C
Method: (§1) Compounds according to this invention were screened for their in vitro activities against selected species of bacteria and fungi. The minimal inhibition concentration (MIC) of these compounds was determined using the National Committee for Clinical Laboratory Standards (NCCLS) broth microdilution assay in microtiter plates, as set forth in: (1) the guidelines of the National Committee for Clinical Laboratory Standards (NCCLS) Document M7-A4 (NCCLS, 1997); (2) the guidelines of the National Committee for Clinical Laboratory Standards (NCCLS) Document M11-A4 (NCCLS, 1997); and (3) the guidelines and reference method of the National Committee for Clinical Laboratory Standards (NCCLS) Document M27-T (NCCLS, 1995). For antifungal assays, the method recommended in Murray, P R., 1995 Manual of Clinical Microbiology (ASM Press, Washington, D.C.), was employed.
(§2) Additionally, some compounds were screened against Enterococcus faccium (ATCC 51559, a vancomycin resistant strain (VRE)), Staphylococcus epidermidis (ATCC 12228), Streptococcus pneumoniae (ATCC 51422, a penicillin resistant strain (PRSP)), and/or Streptococcus pyogenes (ATCC 49399).

C. albicans ATCC 38247 = experiment: MIC, antifungal assay, C. albicans; assay type: cell-based, Candida albicans
Procedure, shortened: (§3)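 Serial dilutions in broth, microplate format, per NCCLS M7-A4, M11-A4 and M27-T; MIC recorded. Fungal strain run by the Manual of Clinical Microbiology protocol.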

S. pneumoniae ATCC 49619 = experiment: MIC, NCCLS broth microdilution, S. pneumoniae; assay type: cell-based, Streptococcus pneumoniae
Procedure, shortened: as §3

E. faecium ATCC 51559 = experiment: MIC, E. faecium VRE; assay type: cell-based, Enterococcus faccium; conditions: Table C; E. faecium ATCC 51559, vancomycin resistant strain (VRE)
Method: as §1, §2

B. cereus ATCC 11778 = experiment: MIC, NCCLS broth microdilution, B. cereus; assay type: cell-based, Bacillus cereus
Procedure, shortened: as §3

E. faecalis ATCC 29212 = experiment: MIC, NCCLS broth microdilution, E. faecalis; assay type: cell-based, Enterococcus faecalis
Procedure, shortened: as §3

[2] = MIC, Table C (organism not given); assay type: cell-based
Method: as §1, §2

S. aureus ATCC 27660 = experiment: MIC, NCCLS broth microdilution, S. aureus MRSA; assay type: cell-based, Staphylococcus aureus; conditions: S. aureus ATCC 27660, methicillin resistant strain (MRSA)
Procedure, shortened: as §3

S. aureus ATCC 33591 = experiment: MIC, NCCLS broth microdilution, S. aureus ATCC 33591; assay type: cell-based, Staphylococcus aureus
Procedure, shortened: as §3

S. aureus ATCC 13709 = experiment: MIC, NCCLS broth microdilution, S. aureus MSSA; assay type: cell-based, Staphylococcus aureus; conditions: S. aureus ATCC 13709, methicillin sensitive strain (MSSA)
Procedure, shortened: as §3

SMILES | Minimum Inhibitory Concentration (MIC), organism B [1] | Minimum Inhibitory Concentration (MIC), organism B (C. albicans ATCC 38247) | Minimum Inhibitory Concentration (MIC), organism G (S. pneumoniae ATCC 49619) | Minimum Inhibitory Concentration (MIC), organism A (E. faecium ATCC 51559) | Minimum Inhibitory Concentration (MIC), organism A (B. cereus ATCC 11778) | Minimum Inhibitory Concentration (MIC), organism C (E. faecalis ATCC 29212) | Minimum Inhibitory Concentration (MIC), organism E [2] | Minimum Inhibitory Concentration (MIC), organism E (S. aureus ATCC 27660) | Minimum Inhibitory Concentration (MIC), organism F (S. aureus ATCC 33591) | Minimum Inhibitory Concentration (MIC), organism D (S. aureus ATCC 13709)
COc1ccc2nc(-c3cc(NC(=O)c4cc(NC(=O)c5cc6ccccc6cn5)cn4C)cn3C)[nH]c2c1 [Compound A-4] | +++ (MIC ≦ 4 pg/mL) | >32 µg/mL | +++ (MIC ≦ 4 μg/mL) | +++ (MIC ≦ 4 pg/mL) | +++ (MIC ≦ 4 μg/mL) | +++ (MIC ≦ 4 μg/mL) | +++ (MIC ≦ 4 pg/mL) | +++ (MIC ≦ 4 μg/mL) | +++ (MIC ≦ 4 μg/mL) | +++ (MIC ≦ 4 μg/mL)
Cn1cc(NC(=O)c2cc3ccccc3cn2)cc1C(=O)Nc1cc(-c2nc3ccc(NC(=O)C(F)(F)F)cc3[nH]2)n(C)c1 [Compound A-5] | +++ (MIC ≦ 4 pg/mL) | >32 µg/mL | +++ (MIC ≦ 4 μg/mL) | +++ (MIC ≦ 4 pg/mL) | +++ (MIC ≦ 4 μg/mL) | +++ (MIC ≦ 4 μg/mL) | +++ (MIC ≦ 4 pg/mL) | +++ (MIC ≦ 4 μg/mL) | +++ (MIC ≦ 4 μg/mL) | +++ (MIC ≦ 4 μg/mL)
Cn1cc(NC(=O)c2cc3ccccc3cn2)cc1C(=O)Nc1cc(-c2nc3ccc(Cl)cc3[nH]2)n(C)c1 [Compound A-7] | +++ (MIC ≦ 4 pg/mL) | >32 µg/mL | +++ (MIC ≦ 4 μg/mL) | +++ (MIC ≦ 4 pg/mL) | +++ (MIC ≦ 4 μg/mL) | +++ (MIC ≦ 4 μg/mL) | +++ (MIC ≦ 4 pg/mL) | +++ (MIC ≦ 4 μg/mL) | +++ (MIC ≦ 4 μg/mL) | +++ (MIC ≦ 4 μg/mL)
CN(C)CCCn1cc(NC(=O)c2ccc(F)cc2F)cc1C(=O)Nc1cc(-c2nc3ccccc3[nH]2)n(C)c1 [Compound A-16] | +++ (MIC ≦ 4 pg/mL) | + (12 ≦ MIC ≦ 32 μg/mL) | +++ (MIC ≦ 4 μg/mL) | +++ (MIC ≦ 4 pg/mL) | +++ (MIC ≦ 4 μg/mL) | +++ (MIC ≦ 4 μg/mL) | +++ (MIC ≦ 4 pg/mL) | +++ (MIC ≦ 4 μg/mL) | +++ (MIC ≦ 4 μg/mL) | +++ (MIC ≦ 4 μg/mL)
CN(C)CCCn1cc(NC(=O)c2ccc(Cl)cc2F)cc1C(=O)Nc1cc(-c2nc3ccncc3[nH]2)n(C)c1 [Compound A-45] | +++ (MIC ≦ 4 pg/mL) | ++ (4 < MIC < 12 μg/mL) | +++ (MIC ≦ 4 μg/mL) | +++ (MIC ≦ 4 pg/mL) | +++ (MIC ≦ 4 μg/mL) | +++ (MIC ≦ 4 μg/mL) | +++ (MIC ≦ 4 pg/mL) | +++ (MIC ≦ 4 μg/mL) | +++ (MIC ≦ 4 μg/mL) | +++ (MIC ≦ 4 μg/mL)
Cn1cc(NC(=O)c2cc(NC(=O)c3sccc3Cl)cn2CCCO)cc1-c1nc2ccccc2[nH]1 [Compound A-48] | +++ (MIC ≦ 4 pg/mL) | >32 µg/mL | +++ (MIC ≦ 4 μg/mL) | +++ (MIC ≦ 4 pg/mL) | +++ (MIC ≦ 4 μg/mL) | +++ (MIC ≦ 4 μg/mL) | +++ (MIC ≦ 4 pg/mL) | +++ (MIC ≦ 4 μg/mL) | +++ (MIC ≦ 4 μg/mL) | +++ (MIC ≦ 4 μg/mL)
Cn1cc(NC(=O)c2cc(NC(=O)c3sccc3Cl)cn2CCCN2CCCCC2)cc1-c1nc2ccccc2[nH]1 [Compound A-49] | +++ (MIC ≦ 4 pg/mL) | + (12 ≦ MIC ≦ 32 μg/mL) | +++ (MIC ≦ 4 μg/mL) | +++ (MIC ≦ 4 pg/mL) | +++ (MIC ≦ 4 μg/mL) | +++ (MIC ≦ 4 μg/mL) | +++ (MIC ≦ 4 pg/mL) | +++ (MIC ≦ 4 μg/mL) | +++ (MIC ≦ 4 μg/mL) | +++ (MIC ≦ 4 μg/mL)
Cn1cc(NC(=O)c2cc(NC(=O)c3sccc3Cl)cn2CCCN2CCOCC2)cc1-c1nc2ccccc2[nH]1 [Compound A-50] | +++ (MIC ≦ 4 pg/mL) | >32 µg/mL | +++ (MIC ≦ 4 μg/mL) | +++ (MIC ≦ 4 pg/mL) | +++ (MIC ≦ 4 μg/mL) | +++ (MIC ≦ 4 μg/mL) | +++ (MIC ≦ 4 pg/mL) | +++ (MIC ≦ 4 μg/mL) | +++ (MIC ≦ 4 μg/mL) | +++ (MIC ≦ 4 μg/mL)
Cn1cc(NC(=O)c2cc(NC(=O)c3sccc3Cl)cn2CCCN2CCSCC2)cc1-c1nc2ccccc2[nH]1 [Compound A-51] | +++ (MIC ≦ 4 pg/mL) | >32 µg/mL | +++ (MIC ≦ 4 μg/mL) | +++ (MIC ≦ 4 pg/mL) | +++ (MIC ≦ 4 μg/mL) | +++ (MIC ≦ 4 μg/mL) | +++ (MIC ≦ 4 pg/mL) | +++ (MIC ≦ 4 μg/mL) | +++ (MIC ≦ 4 μg/mL) | +++ (MIC ≦ 4 μg/mL)
Cn1cc(NC(=O)c2cc(NC(=O)c3sccc3Cl)cn2CCCN2CCC(F)(F)CC2)cc1-c1nc2ccccc2[nH]1 [Compound A-54] | +++ (MIC ≦ 4 pg/mL) | >32 µg/mL | +++ (MIC ≦ 4 μg/mL) | +++ (MIC ≦ 4 pg/mL) | +++ (MIC ≦ 4 μg/mL) | +++ (MIC ≦ 4 μg/mL) | +++ (MIC ≦ 4 pg/mL) | +++ (MIC ≦ 4 μg/mL) | +++ (MIC ≦ 4 μg/mL) | +++ (MIC ≦ 4 μg/mL)
